Consider one molecule from US6483013B1, “Method for agrobacterium mediated transformation of cotton” (Bayer BioScience N.V., priority 1999, dated 2002).

The test concerns cotton embryogenic callus. In words: β-glucuronidase (GUS) assay of embryogenic cotton callus after cocultivation with Agrobacterium strain A3311. Format: cell-based, cotton (variety Coker 312). As for the experimental part: Embryogenic cotton callus was obtained in the following way: Cotton seeds of variety Coker 312 were disinfected using a 12% sodium hypochloride solution, and germinated individually in tubes containing a solution of gelrite 2/g/l H2O and 0.94 g/l MgCl2.6H2O. The tubes were incubated in the dark at 27-28° C. After 10 to 14 days, seedlings are collected, the hypocotyls of the seedlings were cut in segments of about 1 cm and incubated on medium 104 (without plant hormones) at 28° C. under a regime of 16 hr light and 8 hr dark. Every three weeks, the segments were transferred to fresh medium, until embryogenic callus was formed (usually after about 9 weeks). This callus was removed from the explants and cultured further on medium 104.
Agrobacterium strain A 3311 cells were grown on AB medium or MAG medium, collected and resuspended in M104 liquid medium, pH 5.2 (either with or without 100 μM acetosyringone (AS)) or MAG medium at a density of about 1×10^9 CFU/ml. Small embryogenic cotton callus clumps were collected, washed in liquid medium 104 at pH 5.2, and immersed in the Agrobacterium suspension for about 20 minutes. The infected embryogenic calli were than transferred to solid medium 104, pH 5.2, supplemented with either 100 μM AS, 0.5 g/l casamino acids, 100 μM AS and 0.5 g/l casamino acids, or not supplemented at all, and incubated for cocultivation during 4 days in the dark at about 24° C.
After the cocultivation phase, the callus clumps were transferred to selective medium 104 supplemented with 50 mg/l kanamycin and 500mg/l Claforan.
At different time intervals after the cocultivation, samples of embryogenic callus were collected and subjected to a β-glucuronidase assay, using a chromogenic substrate as described by Jefferson et al. (1987; Plant Mol. Biol. Rep. 5: 387-405). The results of these tests are summarized in table 1, and are expressed as the percentage of calli expressing GUS-positive spots.
As a control, experiments were included using tobacco leaf discs co-cultivated with A3311, using mock-inoculated tobacco leaf discs or using mock-inoculated embryogenic cotton callus.

The mark [1] stands for this setting: 100 μM AS only in A3311 resuspension medium M104, cocultivation medium M104 not supplemented.
Where [2] appears, read: A3311 resuspended in M104 + 100 μM AS, supplement in cocultivation medium M104.
[3] abbreviates: A3311 resuspended in M104, supplement in cocultivation medium M104.
The mark [4] stands for this setting: A3311 resuspended in MAG, supplement in cocultivation medium M104.
The mark [5] stands for this setting: no Agrobacterium (mock-inoculated), supplement in cocultivation medium M104.

Several values for one entry are separate records, joined by “and”; a condition that tells them apart may be missing. Equal values may be shown once.

In the case of `COc1cc(C(C)=O)cc(OC)c1O` [AS, 3,5-dimethoxy-4-hydroxyacetophenone], the “percentage of calli expressing GUS-positive spots, 4 weeks” value came to 0% under setting [1], 50% under setting [4] and 0% under setting [5]. The “percentage of calli expressing GUS-positive spots, 6 weeks” value reads like this: under setting [1], 0%; under setting [3], 15% and 25%; under setting [4], 50% and 90%; under setting [5], 0%. In addition, the “percentage of calli expressing GUS-positive spots, 8 weeks” value was “Dead” under setting [1]; 90% and 50% under setting [2]; 20% under setting [3]; 90% and 80% under setting [4]; “Dead” under setting [5]. The “percentage of calli expressing GUS-positive spots, 4 days” value (from here on “percentage … 4 days”) under setting [1] is 0%; the “percentage … 4 days” value (A3311 resuspended in MAG, supplement in cocultivation medium M104 (100 μM AS and/or 0.5 g/l cas. acids)) came to 90%; the “percentage … 4 days” value (no Agrobacterium (mock-inoculated), supplement in cocultivation medium M104 (100 μM AS and/or 0.5 g/l cas. acids)) worked out at 0%. The “percentage of calli expressing GUS-positive spots, 11 days” value reads like this: under setting [1], 0%; under setting [2], 70% and 90%; under setting [3], 50% and 90%; under setting [4], 90%; under setting [5], 0%. The “need for inclusion during Agrobacterium mediated transformation of embryogenic callus” value (both for transient expression and after prolonged cultivation of the transformed calli) is “required”.
